Columns and labels:
Format in all cases: in vivo
[1] = tested on: barnyardgrass (Echinochloa crus-galli); experiment: Test C greenhouse herbicide test, pre- and postemergence
Outline: (§1)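 Visual ratings on a 0 to 100 scale (0 = no effect, 100 = complete control) versus untreated controls, scored 13–15 d after treatment. Soil-applied preemergence to seeded loam/sand; foliar postemergence to 1- to 4-leaf plants (2–18 cm) in peat-vermiculite mix; compounds formulated in solvent plus surfactant.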

[2] = tested on: blackgrass (Alopecurus myosuroides); experiment: as above
Outline: as §1

corn (Zea mays) = experiment: as above
Outline: as §1

[3] = tested on: crabgrass, large (large crabgrass, Digitaria sanguinalis); experiment: as above
Outline: as §1

[4] = tested on: foxtail, giant (giant foxtail, Setaria faberii); experiment: as above
Outline: as §1

[5] = tested on: galium (catchweed bedstraw, Galium aparine); experiment: as above
Outline: as §1

[6] = tested on: johnsongrass (Sorghum halepense); experiment: as above
Outline: as §1

[7] = tested on: nutsedge, yellow (yellow nutsedge, Cyperus esculentus); experiment: as above
Outline: as §1

[8] = tested on: ryegrass, Italian (Italian ryegrass, Lolium multiflorum); experiment: as above
Outline: as §1

soybean (Glycine max) = experiment: as above
Outline: as §1

[9] = tested on: velvetleaf (Abutilon theophrasti); experiment: as above
Outline: as §1

[10] = tested on: wheat (winter wheat, Triticum aestivum); experiment: as above
Outline: as §1

[11] = tested on: waterhemp_RES2 (ALS & HPPD resistant common waterhemp, Amaranthus rudis); experiment: Test E greenhouse herbicide test, postemergence
Procedure: At the same time, plants from these crop and weed species and also waterhemp_RES1, (ALS & Triazine resistant common waterhemp, Amaranthus rudis), and waterhemp_RES2, (ALS & HPPD resistant common waterhemp, Amaranthus rudis) were planted in pots containing Redi-Earth® planting medium (Scotts Company, 14111 Scottslawn Road, Marysville, Ohio 43041) comprising spaghnum peat moss, vermiculite, wetting agent and starter nutrients were treated with postemergence applications of test chemicals formulated in the same manner. Plants ranged in height from 2 to 18 cm for postemergence treatments (1- to 4-leaf stage). Treated plants and controls were maintained in a greenhouse for 14 to 21 d, after which time all species were compared to controls and visually evaluated. Plant response ratings, summarized in Table E, are based on a scale of 0 to 100 where 0 is no effect and 100 is complete control. A dash (-) response means no test result.

[12] = Postemergence, 31 g ai/ha, 0 to 100 scale (0 no effect, 100 complete control)
[13] = Postemergence, 125 g ai/ha, scale 0 to 100, 0 is no effect, 100 is complete control
[14] = Postemergence, 250 g ai/ha, scale 0 to 100, 0 no effect, 100 complete control, 13 to 15 d
[15] = Preemergence, 31 g ai/ha, scale 0 to 100, 0 is no effect, 100 is complete control
[16] = Preemergence, 62 g ai/ha, scale 0 to 100, 0 is no effect, 100 is complete control
[17] = Preemergence, 125 g ai/ha, scale 0 to 100, 0 is no effect, 100 is complete control
[18] = Preemergence, 250 g ai/ha, scale 0 to 100, 0 no effect, 100 complete control
[19] = postemergence, 62 g ai/ha, scale 0 to 100, 0 no effect, 100 complete control

Compound: Cn1nc(Br)c(O)c(-c2cccc3ccccc23)c1=O [Compound 20]
- Barnyardgrass plant response rating [1, 12]: 5
- Plant response rating, Barnyardgrass [1, 13]: 30
- Plant response rating, Barnyardgrass [1, 14]: 45
- Plant response rating, Barnyardgrass [1, 15]: 5
- Plant response rating, Barnyardgrass [1, 16]: 30
- Plant response rating, Barnyardgrass [1, 17]: 60
- Barnyardgrass plant response rating [1, 18]: 85
- Barnyardgrass plant response rating [1, 19]: 10
- Blackgrass plant response rating [2, 12]: 5
- Plant response rating, Blackgrass [2, 13]: 10
- Plant response rating, Blackgrass [2, 14]: 45
- Plant response rating, Blackgrass [2, 15]: 0
- Plant response rating, Blackgrass [2, 16]: 5
- Plant response rating, Blackgrass [2, 17]: 40
- Blackgrass plant response rating [2, 18]: 80
- Blackgrass plant response rating [2, 19]: 10
- Corn plant response rating (corn (Zea mays); [12]): 5
- Plant response rating, Corn (corn (Zea mays); [13]): 5
- Plant response rating, Corn (corn (Zea mays); [14]): 10
- Plant response rating, Corn (corn (Zea mays); [15]): 0
- Plant response rating, Corn (corn (Zea mays); [16]): 0
- Plant response rating, Corn (corn (Zea mays); [17]): 5
- Corn plant response rating (corn (Zea mays); [18]): 35
- Corn plant response rating (corn (Zea mays); [19]): 5
- Crabgrass, Large plant response rating [3, 12]: 5
- Plant response rating, Crabgrass, Large [3, 13]: 10
- Plant response rating, Crabgrass, Large [3, 14]: 30
- Plant response rating, Crabgrass, Large [3, 15]: 10
- Plant response rating, Crabgrass, Large [3, 16]: 15
- Plant response rating, Crabgrass, Large [3, 17]: 15
- Crabgrass, Large plant response rating [3, 18]: 60
- Crabgrass, Large plant response rating [3, 19]: 10
- Foxtail, Giant plant response rating [4, 12]: 0
- Plant response rating, Foxtail, Giant [4, 13]: 45
- Plant response rating, Foxtail, Giant [4, 14]: 80
- Plant response rating, Foxtail, Giant [4, 15]: 5
- Plant response rating, Foxtail, Giant [4, 16]: 30
- Plant response rating, Foxtail, Giant [4, 17]: 65
- Foxtail, Giant plant response rating [4, 18]: 85
- Foxtail, Giant plant response rating [4, 19]: 25
- Galium plant response rating [5, 12]: 98
- Plant response rating, Galium [5, 13]: 100
- Plant response rating, Galium [5, 14]: 100
- Plant response rating, Galium [5, 15]: 90
- Plant response rating, Galium [5, 16]: 100
- Plant response rating, Galium [5, 17]: 95
- Galium plant response rating [5, 18]: 95
- Galium plant response rating [5, 19]: 100
- Johnsongrass plant response rating [6, 12]: 5
- Plant response rating, Johnsongrass [6, 13]: 10
- Plant response rating, Johnsongrass [6, 14]: 10
- Plant response rating, Johnsongrass [6, 15]: 0
- Plant response rating, Johnsongrass [6, 16]: 0
- Plant response rating, Johnsongrass [6, 17]: 0
- Johnsongrass plant response rating [6, 18]: 10
- Johnsongrass plant response rating [6, 19]: 10
- Nutsedge, Yellow plant response rating [7, 12]: 45
- Plant response rating, Nutsedge, Yellow [7, 13]: 85
- Plant response rating, Nutsedge, Yellow [7, 14]: 95
- Plant response rating, Nutsedge, Yellow [7, 15]: 80
- Plant response rating, Nutsedge, Yellow [7, 16]: 85
- Plant response rating, Nutsedge, Yellow [7, 17]: 95
- Nutsedge, Yellow plant response rating [7, 18]: 95
- Nutsedge, Yellow plant response rating [7, 19]: 65
- Ryegrass, Italian plant response rating [8, 12]: 55
- Plant response rating, Ryegrass, Italian [8, 13]: 80
- Plant response rating, Ryegrass, Italian [8, 14]: 90
- Plant response rating, Ryegrass, Italian [8, 15]: 75
- Plant response rating, Ryegrass, Italian [8, 16]: 95
- Plant response rating, Ryegrass, Italian [8, 17]: 95
- Ryegrass, Italian plant response rating [8, 18]: 95
- Ryegrass, Italian plant response rating [8, 19]: 60
- Soybean plant response rating (soybean (Glycine max); [12]): 0
- Plant response rating, Soybean (soybean (Glycine max); [13]): 35
- Plant response rating, Soybean (soybean (Glycine max); [14]): 0
- Plant response rating, Soybean (soybean (Glycine max); [16]): 20
- Plant response rating, Soybean (soybean (Glycine max); [17]): 30
- Soybean plant response rating (soybean (Glycine max); [18]): 30
- Soybean plant response rating (soybean (Glycine max); [19]): 0
- Velvetleaf plant response rating [9, 12]: 25
- Plant response rating, Velvetleaf [9, 13]: 85
- Plant response rating, Velvetleaf [9, 14]: 100
- Plant response rating, Velvetleaf [9, 16]: 90
- Plant response rating, Velvetleaf [9, 17]: 100
- Velvetleaf plant response rating [9, 18]: 100
- Velvetleaf plant response rating [9, 19]: 25
- Wheat plant response rating [10, 12]: 0
- Plant response rating, Wheat [10, 13]: 0
- Plant response rating, Wheat [10, 14]: 0
- Plant response rating, Wheat [10, 16]: 0
- Plant response rating, Wheat [10, 17]: 35
- Wheat plant response rating [10, 18]: 30
- Wheat plant response rating [10, 19]: 0
- Plant response rating, Waterhemp_RES2 ([11]; 31 g ai/ha, visual, scale 0 no effect to 100 complete control): 50
- Plant response rating, Waterhemp_RES2 ([11]; 62 g ai/ha, scale 0 to 100 (0 no effect, 100 complete control)): 50
- Plant response rating, Waterhemp_RES2 ([11]; 125 g ai/ha, scale 0 to 100 (0 no effect, 100 complete control)): 50
- Plant response rating, Waterhemp_RES2 ([11]; 250 g ai/ha, scale 0 to 100 (0 no effect, 100 complete control)): 60

Source: patent US10597388B2, “Pyridazinone herbicides” (FMC CORPORATION, priority 2014, dated 2020)
